Each compound was assayed on YAP-TEAD interaction (assay: SK-HEP-1 reporter assay (8xTEAD responsive elements driving NanoLuc luciferase)). Details: Homo sapiens, SK-HEP1, SK-HEP-1 reporter assay.
Assay type: cell-based
Procedure: To identify inhibitors of YAP-TEAD interaction, 8×TEAD responsive elements driving the NanoLuc® luciferase gene were stably integrated into SK-HEP-1 cells (ECACC #: 91091816).
For the assay, cells were treated in duplicates with the test compounds in a 10-point dose, with the top concentration starting at 30 μM (final concentration in assay). After a 24 hour incubation at 37° C., 95% rH, and 5% CO2, a luciferase substrate/lysis reagent mix (NanoGlo™, Promega) was added to the cells, allowing the quantification of cellular luciferase activity.
Cell Media: The cells were cultured in the following media: MEM, +10% FBS, +1× GlutaMAX, +1 mM Sodium-Pyruvate, +100 μM Non-essential amino acids, +0.1 mg/ml Hygromycin. The media used for the assay was: MEM (w/o Phenol Red), +10% FBS, +1× GlutaMAX, +1 mM Sodium-Pyruvate, +100 μM Non-essential amino acids, +0.5% Pen/Strep
Reagents: The reagents used are listed below:
Cell culture: The cells were examined using an inverted microscope to check for health and cell density. To dissociate adherent cells, the monolayer of cells was washed once with pre-warmed PBS. After removing the PBS, 3 ml pre-warmed Accutase® was added to a F75 flask, dispersed evenly and the flask was allowed to sit in incubator for ˜4-5 minutes.
When a single cell suspension was obtained, 7 ml of prewarmed growth media was added and resuspended with the cells. The cell suspension was transferred to a sterile 15 ml conical centrifuge tube, and spun for 5 min at 300×g, RT. The supernatant was discarded and the pellet was resuspended in 10 ml of pre-warmed growth media.
The total cell count was determined, and 20 μl of the desired cell number was added to each well of a 384 well plate using a Multidrop Combi. The plates were then incubated for 24 hours at 37° C., 95% rH, and 5% CO2.
Compound treatment: 24 hours after seeding, the cells were treated with compounds.
A 1:333 dilution of compounds, diluted in DMSO, was made to get a final concentration of 0.3% DMSO per well. To transfer the compounds to the assay plate, 120 nl was shot from Labcyte low dead volume plates to the cell plates containing 20 μl media/well with the ECHO 555 liquid handling system.
After treatment, the cells were fed with 20 μl fresh pre-warmed assay media using a Multidrop combi.
The assay plates were then incubated for another 24 h at 37° C., 95% rH, and 5% CO2.
Luciferase readout: 24 h after treatment, the plates were taken out of the incubator and were allowed to equilibrate to RT. 30 μl of NanoGlo® reagent was added to the plates in the dark. Plates were shaken for 20 min on a Teleshake (˜1500 rpm) in the dark. The luminescence was then measured using an EnVision microplate reader. The IC50 values were generated using Genedata Screener®.

IC50 [nM]	SMILES
100 to 10000	Cn1cc2c3cc(C(=O)N(CCO)CC4CC=CCC4)ccc3n(-c3ccc(C(F)(F)F)cc3)c2n1 (centres unmarked) [Example B12, N-[(cyclohex-3-en-1-yl)methyl]-N-(2-hydroxyethyl)-2-methyl-8-[4-(trifluoromethyl)phenyl]-2H,8H-pyrazolo[3,4-b]indole-5-carboxamide]
1 to 10	Cn1cc2c3cc(C(=O)NCCc4cn[nH]c4)ccc3n(-c3ccc(C(F)(F)F)cc3)c2n1 [B100^]
100 to 10000	Cn1cc2c3cc(C(=O)NCCc4cc(O)no4)ccc3n(-c3ccc(C(F)(F)F)cc3)c2n1 [B113^]
100 to 10000	Cn1cc2c3cc(C(=O)N4CC(O)(c5ccsc5)C4)ccc3n(-c3ccc(C(F)(F)F)cc3)c2n1 [B135^]
100 to 10000	Cn1cc2c3cc(C(=O)NCCn4cnnc4C4CC4)ccc3n(-c3ccc(C(F)(F)F)cc3)c2n1 [Example B98, N-[2-(3-cyclopropyl-4H-1,2,4-triazol-4-yl)ethyl]-2-methyl-8-[4-(trifluoromethyl)phenyl]-2H,8H-pyrazolo[3,4-b]indole-5-carboxamide]
10 to 100	Cn1cc2c3cc(C(=O)NC4(Cc5nc[nH]n5)CC4)ccc3n(-c3ccc(C(F)(F)F)cc3)c2n1 [Example B80, 2-methyl-N-{1-[(1H-1,2,4-triazol-3-yl)methyl]cyclopropyl}-8-[4-(trifluoromethyl)phenyl]-2H,8H-pyrazolo[3,4-b]indole-5-carboxamide]
100 to 10000	CC1COC(CO)CN1C(=O)c1ccc2c(c1)c1cn(C)nc1n2-c1ccc(C(F)(F)F)cc1 (centres unmarked) [Example B72, (5-methyl-4-{2-methyl-8-[4-(trifluoromethyl)phenyl]-2H,8H-pyrazolo[3,4-b]indole-5-carbonyl}morpholin-2-yl)methanol]
> 10000	CCC(NC(=O)c1ccc2c(c1)c1cn(C)nc1n2-c1ccc(C(F)(F)F)cc1)c1ncc[nH]1 (centres unmarked) [Example B7, N-[1-(1H-imidazol-2-yl)propyl]-2-methyl-8-[4-(trifluoromethyl)phenyl]-2H,8H-pyrazolo[3,4-b]indole-5-carboxamide]
10 to 100	CC(CCn1cncn1)NC(=O)c1ccc2c(c1)c1cn(C)nc1n2-c1ccc(C(F)(F)F)cc1 (centres unmarked) [Example B90, 2-methyl-N-[4-(1H-1,2,4-triazol-1-yl)butan-2-yl]-8-[4-(trifluoromethyl)phenyl]-2H,8H-pyrazolo[3,4-b]indole-5-carboxamide]
100 to 10000	Cn1cc2c3cc(C(=O)NCc4cncn4CCF)ccc3n(-c3ccc(C(F)(F)F)cc3)c2n1 [Example B82, N-{[1-(2-fluoroethyl)-1H-imidazol-5-yl]methyl}-2-methyl-8-[4-(trifluoromethyl)phenyl]-2H,8H-pyrazolo[3,4-b]indole-5-carboxamide]
> 10000	Cc1cc(CC(C)NC(=O)c2ccc3c(c2)c2cn(C)nc2n3-c2ccc(C(F)(F)F)cc2)n[nH]1 (centres unmarked) [B101^]
100 to 10000	CN(Cc1c[nH]cn1)C(=O)c1ccc2c(c1)c1cn(C)nc1n2-c1ccc(C(F)(F)F)cc1 [Example B50, N-[(1H-imidazol-4-yl)methyl]-N,2-dimethyl-8-[4-(trifluoromethyl)phenyl]-2H,8H-pyrazolo[3,4-b]indole-5-carboxamide]
10 to 100	COCc1ocnc1CNC(=O)c1ccc2c(c1)c1cn(C)nc1n2-c1ccc(C(F)(F)F)cc1 [Example B49, N-{[5-(methoxymethyl)-1,3-oxazol-4-yl]methyl}-2-methyl-8-[4-(trifluoromethyl)phenyl]-2H,8H-pyrazolo[3,4-b]indole-5-carboxamide]
10 to 100	Cc1n[nH]c(C)c1C(C)NC(=O)c1ccc2c(c1)c1cn(C)nc1n2-c1ccc(C(F)(F)F)cc1 (centres unmarked) [Example B21, N-[1-(3,5-dimethyl-1H-pyrazol-4-yl)ethyl]-2-methyl-8-[4-(trifluoromethyl)phenyl]-2H,8H-pyrazolo[3,4-b]indole-5-carboxamide]
100 to 10000	COCC1(C)CCCN1C(=O)c1ccc2c(c1)c1cn(C)nc1n2-c1ccc(C(F)(F)F)cc1 (centres unmarked) [Example B89, 2-(methoxymethyl)-2-methyl-1-{2-methyl-8-[4-(trifluoromethyl)phenyl]-2H,8H-pyrazolo[3,4-b]indole-5-carbonyl}pyrrolidine]
100 to 10000	CC(C)CC(NC(=O)c1ccc2c(c1)c1cn(C)nc1n2-c1ccc(C(F)(F)F)cc1)c1nc[nH]n1 (centres unmarked) [Example B24, 2-methyl-N-[3-methyl-1-(1H-1,2,4-triazol-3-yl)butyl]-8-[4-(trifluoromethyl)phenyl]-2H,8H-pyrazolo[3,4-b]indole-5-carboxamide]

IC50 [nM]	SMILES
> 10000	Cn1cc2c3cc(C(=O)NC[C@H]4C[C@H](n5cncn5)C4)ccc3n(-c3ccc(C(F)(F)F)cc3)c2n1 [B140^]
100 to 10000	Cn1cc2c3cc(C(=O)NCC4CC45CCOC5)ccc3n(-c3ccc(C(F)(F)F)cc3)c2n1 (centres unmarked) [Example B75, 2-methyl-N-({5-oxaspiro[2.4]heptan-1-yl}methyl)-8-[4-(trifluoromethyl)phenyl]-2H,8H-pyrazolo[3,4-b]indole-5-carboxamide]
100 to 10000	Cn1cc2c3cc(C(=O)NC4(CCF)CCOCC4)ccc3n(-c3ccc(C(F)(F)F)cc3)c2n1 [B112^]
100 to 10000	CO[C@@H]1CCOC[C@H]1NC(=O)c1ccc2c(c1)c1cn(C)nc1n2-c1ccc(C(F)(F)F)cc1 [B131^]
100 to 10000	Cn1cc2c3cc(C(=O)NCC4(N5CCOCC5)CC4)ccc3n(-c3ccc(C(F)(F)F)cc3)c2n1 [Example B42, 2-methyl-N-{[1-(morpholin-4-yl)cyclopropyl]methyl}-8-[4-(trifluoromethyl)phenyl]-2H,8H-pyrazolo[3,4-b]indole-5-carboxamide]
10 to 100	CCCc1nc(C)c(CNC(=O)c2ccc3c(c2)c2cn(C)nc2n3-c2ccc(C(F)(F)F)cc2)o1 [B124^]
> 10000	Cn1cc2c3cc(C(=O)NCCc4cc(O)n(C)n4)ccc3n(-c3ccc(C(F)(F)F)cc3)c2n1 [Example B38, N-[2-(5-hydroxy-1-methyl-1H-pyrazol-3-yl)ethyl]-2-methyl-8-[4-(trifluoromethyl)phenyl]-2H,8H-pyrazolo[3,4-b]indole-5-carboxamide]
100 to 10000	Cn1cc2c3cc(C(=O)NCC4(n5cncn5)CC4)ccc3n(-c3ccc(C(F)(F)F)cc3)c2n1 [B103^]
100 to 10000	COCc1noc(C(C)NC(=O)c2ccc3c(c2)c2cn(C)nc2n3-c2ccc(C(F)(F)F)cc2)n1 (centres unmarked) [Example B86, N-{1-[3-(methoxymethyl)-1,2,4-oxadiazol-5-yl]ethyl}-2-methyl-8-[4-(trifluoromethyl)phenyl]-2H,8H-pyrazolo[3,4-b]indole-5-carboxamide]
10 to 100	Cn1cc2c3cc(C(=O)NC(c4ncon4)C4CC4)ccc3n(-c3ccc(C(F)(F)F)cc3)c2n1 (centres unmarked) [Example B31, N-[cyclopropyl(1,2,4-oxadiazol-3-yl)methyl]-2-methyl-8-[4-(trifluoromethyl)phenyl]-2H,8H-pyrazolo[3,4-b]indole-5-carboxamide]
100 to 10000	CC1CN(C(=O)c2ccc3c(c2)c2cn(C)nc2n3-c2ccc(C(F)(F)F)cc2)CC(CCO)O1 (centres unmarked) [Example B33, 2-(6-methyl-4-{2-methyl-8-[4-(trifluoromethyl)phenyl]-2H,8H-pyrazolo[3,4-b]indole-5-carbonyl}morpholin-2-yl)ethan-1-ol]
> 10000	Cn1cc2c3cc(C(=O)NCc4ncn5c4CCCC5)ccc3n(-c3ccc(C(F)(F)F)cc3)c2n1 [Example B20, N-({5H,6H,7H,8H-imidazo[1,5-a]pyridin-1-yl}methyl)-2-methyl-8-[4-(trifluoromethyl)phenyl]-2H,8H-pyrazolo[3,4-b]indole-5-carboxamide]
100 to 10000	O=C(O)c1ccc2c(c1)c1cn(Cc3ccccc3)cc1n2S(=O)(=O)c1ccccc1 [Example 1, 4-(benzenesulfonyl)-2-benzyl-2H,4H-pyrrolo[3,4-b]indole-7-carboxylic acid]
100 to 10000	Cn1cc2c3cc(C(=O)NCc4cc(C5CCC5)n[nH]4)ccc3n(-c3ccc(C(F)(F)F)cc3)c2n1 [Example B17, N-[(3-cyclobutyl-1H-pyrazol-5-yl)methyl]-2-methyl-8-[4-(trifluoro-methyl)phenyl]-2H,8H-pyrazolo[3,4-b]indole-5-carboxamide]
100 to 10000	Cn1cc2c3cc(C(=O)NCCn4ccc(C5CC5)n4)ccc3n(-c3ccc(C(F)(F)F)cc3)c2n1 [B107^]
> 10000	CC(NC(=O)c1ccc2c(c1)c1cn(C)nc1n2-c1ccc(C(F)(F)F)cc1)c1cnn(C2CC2)c1 (centres unmarked) [B109^]
